# Assays:
# Format in all cases: cell-based
# S. aureus = test: bactericidal activity against 54 strains of S. aureus
# Source text: 5% w/v GML nonaqueous gel is bactericidal for 54 strains of S. aureus, including highly antibiotic resistant organisms and multiple clonal groups. GML is antimicrobial on contact, killing the organisms in only a few minutes. The estimated chance of S. aureus developing resistance to GML is […]; thus resistance is highly unlikely.
# [1] = tested on: S. aureus (MN8, MNWH, MW2); test: bactericidal activity / growth measured as CFU/mL in supernatants of microtiter plate cultures; details: GML at 500 μg/mL; all three S. aureus strains (MN8, MNWH, MW2); both 24 and 48 hours
# Description: (§1) To directly assess the effect of GML on the formation of biofilms, 96 well plastic microtiter plates were inoculated with approximately 10^6/mL of one of three strains of S. aureus (MN8, a methicillin sensitive strain; MNWH, a methicillin resistant strain; or MW2, a methicillin resistant strain), or with non-typable Haemophilus influenzae. Wells were cultured stationary at 37° C. for 24 and 48. As a control, in one set of three wells for each microbe, the wells were agitated 3 times by pipetting up and down. The bactericidal activity of GML was determined by measuring CFU/mL in supernatants. After removal of supernatants, wells were washed three times with PBS to remove unbound cells, and were then treated with crystal violet for 30 minutes. Wells were again washed three times with PBS to remove unbound crystal violet. Finally, wells were treated with ethanol to solubilize biofilm associated crystal violet. Absorbance at 595 nm was determined by an ELISA reader to measure biofilm formation.
# S. aureus biofilms = test: biofilm formation by crystal violet staining, absorbance at 595 nm; details: 10 fold lower GML concentrations than necessary to inhibit bacterial growth
# Description: as §1
substance,measurement,setting,value
Glycerol monolaurate [GML],time to kill the organisms (antimicrobial on contact),S. aureus,a few minutes
same,growth as measured by CFU/mL,[1],completely inhibited
same,biofilm formation (crystal violet staining of retained biofilm material),S. aureus biofilms,significantly inhibited
